Columns and labels:
[1] = test system: NCI-H441; assay: cells; type: functional, cell-based; conditions: Homo sapiens;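 further: growth inhibition of NCI-H441 cells, read out with a cell viability assay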
Description: SANGER: Inhibition of human NCI-H441 cell growth in a cell viability assay.

[2] = test system: NB1; assay: cells; type: functional, cell-based; conditions: Homo sapiens;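 further: reduction of NB1 cell proliferation, read out with a viability assay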
Description: SANGER: Inhibition of human NB1 cell growth in a cell viability assay.

[3] = test system: DoTc2-4510; assay: cells; type: functional, cell-based; conditions: Homo sapiens
[4] = test system: ChaGo-K-1; assay: cells; type: functional, cell-based; conditions: Homo sapiens;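 further: growth inhibition of ChaGo-K-1 cells, read out with a cell viability assay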
Description: SANGER: Inhibition of human ChaGo-K-1 cell growth in a cell viability assay.

[5] = test system: IST-SL2; assay: cells; type: functional, cell-based; conditions: Homo sapiens;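 further: growth inhibition of human IST-SL2 cells, read out by a cell viability assay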
Description: SANGER: Inhibition of human IST-SL2 cell growth in a cell viability assay.

[6] = test system: SCC-9; assay: cells; type: functional, cell-based; conditions: Homo sapiens;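 further: Read-out is a cell viability assay, with values giving inhibition of cell growth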
Description: SANGER: Inhibition of human SCC-9 cell growth in a cell viability assay.

[7] = test system: FaDu; assay: cells; type: functional, cell-based; conditions: Homo sapiens;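 further: cell viability readout of growth inhibition in FaDu cells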
Description: SANGER: Inhibition of human FADU cell growth in a cell viability assay.

[8] = test system: PFSK-1; assay: cells; type: functional, cell-based; conditions: Homo sapiens;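 further: cell viability assay measuring how strongly compounds suppress growth of human PFSK-1 cells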
Description: SANGER: Inhibition of human PFSK-1 cell growth in a cell viability assay.

[9] = test system: LC-1F; assay: cells; type: functional, cell-based; conditions: Homo sapiens;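 further: growth inhibition of human LC-1F cells, read out with a cell viability assay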
Description: SANGER: Inhibition of human LC-1F cell growth in a cell viability assay.

[10] = test system: RT-112; assay: cells; type: functional, cell-based; conditions: Homo sapiens
Description: SANGER: Inhibition of human RT-112 cell growth in a cell viability assay.

[11] = test system: T47D; assay: cells; type: functional, cell-based; conditions: Homo sapiens;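 further: growth inhibition of human T47D cells, measured with a cell viability assay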
Description: SANGER: Inhibition of human T47D cell growth in a cell viability assay.

[12] = test system: MKN-7; assay: cells; type: functional, cell-based; conditions: Homo sapiens;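 further: growth inhibition of MKN-7 cells, read out with a cell viability assay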
Description: SANGER: Inhibition of human MKN7 cell growth in a cell viability assay.

[13] = test system: THP-1; assay: cells; type: functional, cell-based; conditions: Homo sapiens;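 further: growth inhibition of THP-1 cells, read out via a cell viability assay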
Description: SANGER: Inhibition of human THP-1 cell growth in a cell viability assay.

[14] = test system: CWR22R; assay: cells; type: functional, cell-based; conditions: Homo sapiens, 22Rv1;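 further: growth inhibition of 22Rv1 cells, read out with a cell viability assay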
Description: SANGER: Inhibition of human 22RV1 cell growth in a cell viability assay.

[15] = test system: HT-29; assay: cells; type: functional, cell-based; conditions: Homo sapiens;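 further: growth inhibition of human HT-29 cells, read out by a cell viability assay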
Description: SANGER: Inhibition of human HT-29 cell growth in a cell viability assay.

[16] = test system: CAL-148; assay: cells; type: functional, cell-based; conditions: Homo sapiens
Description: SANGER: Inhibition of human CAL-148 cell growth in a cell viability assay.

[17] = test system: HT1197; assay: cells; type: functional, cell-based, HT-1197; conditions: Homo sapiens
Description: SANGER: Inhibition of human HT-1197 cell growth in a cell viability assay.

[18] = test system: COR-L279; assay: SANGER: Inhibition of human COR-L279 cell growth in a cell viability assay.; type: functional, cell-based
[19] = test system: Huh-7; assay: cells; type: functional, cell-based; conditions: Homo sapiens;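 further: HuH-7 cell growth inhibition, read out with a cell viability assay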
Description: SANGER: Inhibition of human HuH-7 cell growth in a cell viability assay.

[20] = test system: A673; assay: cells; type: functional, cell-based; conditions: Homo sapiens;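 further: growth inhibition of human A673 cells, read out through a cell viability assay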
Description: SANGER: Inhibition of human A673 cell growth in a cell viability assay.

[21] = test system: SK-LU-1; assay: cells; type: functional, cell-based; conditions: Homo sapiens;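 further: cell viability assay measuring growth inhibition of human SK-LU-1 cells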
Description: SANGER: Inhibition of human SK-LU-1 cell growth in a cell viability assay.

[22] = test system: MKN-28; assay: cells; type: functional, cell-based; conditions: Homo sapiens;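 further: cell viability assay read-out, IC50 reflects suppression of growth of human MKN-28 cells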
Description: SANGER: Inhibition of human MKN28 cell growth in a cell viability assay.

[23] = test system: 5637; assay: cells; type: functional, cell-based; conditions: Homo sapiens
Description: SANGER: Inhibition of human 5637 cell growth in a cell viability assay.

[24] = test system: LCLC-103H cell line; assay: cells; type: functional, cell-based; conditions: Homo sapiens
Description: SANGER: Inhibition of human LCLC-103H cell growth in a cell viability assay.

[25] = test system: Raji; assay: cells; type: functional, cell-based; conditions: Homo sapiens;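 further: cell viability assay measuring inhibition of Raji cell growth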
Description: SANGER: Inhibition of human Raji cell growth in a cell viability assay.

[26] = test system: NCI-H1793; assay: cells; type: functional, cell-based; conditions: Homo sapiens;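 further: cell growth inhibition, read out by a cell viability assay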
Description: SANGER: Inhibition of human NCI-H1793 cell growth in a cell viability assay.

[27] = test system: CAL-33; assay: cells; type: functional, cell-based; conditions: Homo sapiens;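 further: growth inhibition of CAL-33 cells, read out with a cell viability assay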
Description: SANGER: Inhibition of human CAL-33 cell growth in a cell viability assay.

[28] = test system: NCI-H2141; assay: cells; type: functional, cell-based; conditions: Homo sapiens;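 further: growth inhibition of human NCI-H2141 cells, read out with a cell viability assay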
Description: SANGER: Inhibition of human NCI-H2141 cell growth in a cell viability assay.

[29] = test system: TGW; assay: cells; type: functional, cell-based; conditions: Homo sapiens;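 further: growth inhibition of human TGW cells, read out with a cell viability assay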
Description: SANGER: Inhibition of human TGW cell growth in a cell viability assay.

[30] = test system: G-361; assay: cells; type: functional, cell-based; conditions: Homo sapiens
[31] = test system: YKG-1; assay: cells; type: functional, cell-based; conditions: Homo sapiens;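 further: cell growth inhibition, read out with a viability assay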
Description: SANGER: Inhibition of human YKG-1 cell growth in a cell viability assay.

[32] = test system: GAMG; assay: cells; type: functional, cell-based; conditions: Homo sapiens;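 further: cell growth inhibition measured by a viability assay in the GAMG human cell line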
Description: SANGER: Inhibition of human GAMG cell growth in a cell viability assay.

[33] = test system: TUR; assay: cells; type: functional, cell-based; conditions: Homo sapiens;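 further: growth inhibition of human TUR cells, read out with a cell viability assay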
Description: SANGER: Inhibition of human TUR cell growth in a cell viability assay.

[34] = test system: NUGC-3; assay: cells; type: functional, cell-based; conditions: Homo sapiens;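 further: growth inhibition of human NUGC-3 cells, read out with a cell viability assay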
Description: SANGER: Inhibition of human NUGC-3 cell growth in a cell viability assay.

[35] = test system: NCI-H322M; assay: cells; type: functional, cell-based; conditions: Homo sapiens;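 further: cell viability assay measuring inhibition of growth of human NCI-H322M cells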
Description: SANGER: Inhibition of human NCI-H322M cell growth in a cell viability assay.

[36] = test system: SAS; assay: cells; type: functional, cell-based; conditions: Homo sapiens;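 further: growth inhibition of SAS cells, read out with a cell viability assay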
Description: SANGER: Inhibition of human SAS cell growth in a cell viability assay.

[37] = test system: HSC-2; assay: cells; type: functional, cell-based; conditions: Homo sapiens;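 further: growth inhibition of human HSC-2 cells, read out by a cell viability assay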
Description: SANGER: Inhibition of human HSC-2 cell growth in a cell viability assay.

[38] = test system: MDA-MB-175-VII; assay: cells; type: functional, cell-based; conditions: Homo sapiens
[39] = test system: NCI-H1417; assay: cells; type: functional, cell-based; conditions: Homo sapiens;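 further: human NCI-H1417 cells, growth inhibition determined with a cell viability readout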
Description: SANGER: Inhibition of human NCI-H1417 cell growth in a cell viability assay.

[40] = test system: KYSE-180; assay: cells; type: functional, cell-based; conditions: Homo sapiens;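 further: growth inhibition of KYSE-180 cells, read out with a cell viability assay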
Description: SANGER: Inhibition of human KYSE-180 cell growth in a cell viability assay.

[41] = test system: C3A; assay: cells; type: functional, cell-based; conditions: Homo sapiens;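 further: growth inhibition of C3A human cells, quantified with a cell viability readout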
Description: SANGER: Inhibition of human C3A cell growth in a cell viability assay.

[42] = test system: ACHN; assay: cells; type: functional, cell-based; conditions: Homo sapiens;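 further: cell viability read-out used to gauge how strongly growth of human ACHN cells is suppressed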
Description: SANGER: Inhibition of human ACHN cell growth in a cell viability assay.

[43] = test system: A-431; assay: cells; type: functional, cell-based; conditions: Homo sapiens;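 further: growth inhibition of A-431 cells, determined with a cell viability read-out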
Description: SANGER: Inhibition of human A431 cell growth in a cell viability assay.

[44] = test system: BHT-101; assay: cells; type: functional, cell-based; conditions: Homo sapiens
Description: SANGER: Inhibition of human BHT-101 cell growth in a cell viability assay.

[45] = test system: SK-MEL3; assay: cells; type: functional, cell-based, SK-MEL-3; conditions: Homo sapiens;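 further: growth inhibition of human SK-MEL-3 cells, read out with a cell viability assay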
Description: SANGER: Inhibition of human SK-MEL-3 cell growth in a cell viability assay.

[46] = test system: NCI-H1755; assay: cells; type: functional, cell-based; conditions: Homo sapiens;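 further: cell viability readout used to measure growth inhibition of NCI-H1755 cells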
Description: SANGER: Inhibition of human NCI-H1755 cell growth in a cell viability assay.

[47] = test system: HCC38; assay: cells; type: functional, cell-based; conditions: Homo sapiens;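 further: cell viability assay on the human HCC38 cell line, with IC50 marking the concentration that inhibits cell growth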
Description: SANGER: Inhibition of human HCC38 cell growth in a cell viability assay.

[48] = test system: Panc1005; assay: cells; type: functional, cell-based; conditions: Homo sapiens;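 further: growth inhibition of human PANC-10-05 cells, measured by a cell viability assay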
Description: SANGER: Inhibition of human PANC-10-05 cell growth in a cell viability assay.

[49] = test system: LoVo; assay: cells; type: functional, cell-based; conditions: Homo sapiens;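 further: growth inhibition of human LoVo cells, read out with a cell viability assay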
Description: SANGER: Inhibition of human LoVo cell growth in a cell viability assay.

[50] = test system: PC-3; assay: cells; type: functional, cell-based; conditions: Homo sapiens;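 further: cell viability assay measuring growth inhibition of PC-3 cells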
Description: SANGER: Inhibition of human PC-3 cell growth in a cell viability assay.

[51] = test system: H4; assay: cells; type: functional, cell-based; conditions: Homo sapiens
Description: SANGER: Inhibition of human H4 cell growth in a cell viability assay.

[52] = test system: M14; assay: cells; type: functional, cell-based; conditions: Homo sapiens;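 further: growth inhibition of M14 cells, read out with a cell viability assay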
Description: SANGER: Inhibition of human M14 cell growth in a cell viability assay.

[53] = test system: SR; assay: cells; type: functional, cell-based; conditions: Homo sapiens
Description: SANGER: Inhibition of human SR cell growth in a cell viability assay.

[54] = test system: OPM-2; assay: cells; type: functional, cell-based; conditions: Homo sapiens;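 further: growth of OPM-2 cells measured with a viability assay, IC50 for suppression of proliferation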
Description: SANGER: Inhibition of human OPM-2 cell growth in a cell viability assay.

[55] = test system: MEL-JUSO; assay: cells; type: functional, cell-based; conditions: Homo sapiens;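 further: growth inhibition of human MEL-JUSO cells, read out with a cell viability assay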
Description: SANGER: Inhibition of human MEL-JUSO cell growth in a cell viability assay.

[56] = test system: C-33-A; assay: cells; type: functional, cell-based; conditions: Homo sapiens;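 further: cell viability assay measuring growth inhibition of C-33-A cells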
Description: SANGER: Inhibition of human C-33-A cell growth in a cell viability assay.

[57] = test system: Capan-2; assay: cells; type: functional, cell-based; conditions: Homo sapiens;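 further: Capan-2 cell growth inhibition, read out with a viability assay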
Description: SANGER: Inhibition of human Capan-2 cell growth in a cell viability assay.

[58] = test system: SW1783; assay: cells; type: functional, cell-based; conditions: Homo sapiens
Description: SANGER: Inhibition of human SW1783 cell growth in a cell viability assay.

[59] = test system: ASPC1; assay: cells; type: functional, cell-based; conditions: Homo sapiens;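 further: growth inhibition of AsPC-1 cells, read out with a cell viability assay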
Description: SANGER: Inhibition of human AsPC-1 cell growth in a cell viability assay.

[60] = test system: SW837; assay: cells; type: functional, cell-based; conditions: Homo sapiens;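 further: growth inhibition of SW837 cells, determined with a cell viability assay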
Description: SANGER: Inhibition of human SW837 cell growth in a cell viability assay.

[61] = test system: BCPAP; assay: cells; type: functional, cell-based; conditions: Homo sapiens
Description: SANGER: Inhibition of human BCPAP cell growth in a cell viability assay.

[62] = test system: HCC1806; assay: cells; type: functional, cell-based; conditions: Homo sapiens
Description: SANGER: Inhibition of human HCC1806 cell growth in a cell viability assay.

[63] = test system: Daudi; assay: cells; type: functional, cell-based; conditions: Homo sapiens
Description: SANGER: Inhibition of human Daudi cell growth in a cell viability assay.

`C/C=C(/C)C(=O)O[C@H]1C(C)=C2[C@H]([C@@H]1OC(=O)CCCCCCC)[C@@](C)(OC(C)=O)C[C@H](OC(=O)CCC)[C@@]1(O)[C@H]2OC(=O)[C@@]1(C)O` [THAPSIGARGIN] was tested, and the IC50 [1] was 12.6 nM, the IC50 [2] was 27.1 nM and the IC50 [3] was 12.4 nM. For the same compound, the IC50 [4] was 3.29 nM, the IC50 [5] was 6.76 nM and the IC50 [6] was 447 nM. The IC50 [7] was 169 nM, the IC50 [8] was 12.8 nM and the IC50 [9] was 4.19 nM. It also gave an IC50 [10] of 4.22 nM, an IC50 [11] greater than 512 nM and an IC50 [12] greater than 512 nM. The IC50 [13] was 11.4 nM, the IC50 [14] was 1.17 nM and the IC50 [15] was 5.4 nM. The IC50 [16] was greater than 512 nM, the IC50 [17] was greater than 512 nM and the IC50 [18] was 36.3 nM. For the same compound, the IC50 [19] was less than 2 nM, the IC50 [20] was 7.24 nM and the IC50 [21] was 1.16 nM. The IC50 [22] was 9.79 nM, the IC50 [23] was 11.4 nM and the IC50 [24] was less than 2 nM. For the same compound, the IC50 [25] was 38.4 nM, the IC50 [26] was greater than 512 nM and the IC50 [27] was 30.7 nM. The IC50 [28] was 85 nM, the IC50 [29] was 4.73 nM and the IC50 [30] was 10.7 nM. For the same compound, the IC50 [31] was 7.72 nM, the IC50 [32] was 8.86 nM and the IC50 [33] was 12.5 nM. For the same compound, the IC50 [34] was less than 2 nM, the IC50 [35] was greater than 512 nM and the IC50 [36] was 106 nM. The IC50 [37] was 2.99 nM, the IC50 [38] was 330 nM and the IC50 [39] was greater than 512 nM. For the same compound, the IC50 [40] was 1.16 nM, the IC50 [41] was 30.3 nM and the IC50 [42] was 28.6 nM. It also gave an IC50 [43] of 4.11 nM, an IC50 [44] of 88.1 nM and an IC50 [45] of 6.51 nM. It also gave an IC50 [46] of 310 nM, an IC50 [47] of 1.37 nM and an IC50 [48] of 26.1 nM. The IC50 [49] was 10.4 nM, the IC50 [50] was 8 nM and the IC50 [51] was 1.98 nM. The IC50 [52] was 14 nM, the IC50 [53] was greater than 512 nM and the IC50 [54] was less than 2 nM. It also gave an IC50 [55] of less than 2 nM, an IC50 [56] of 9.77 nM and an IC50 [57] of less than 2 nM. For the same compound, the IC50 [58] was 9.24 nM, the IC50 [59] was greater than 512 nM and the IC50 [60] was 1.66 nM. The IC50 [61] was less than 2 nM, the IC50 [62] was 2.4 nM and the IC50 [63] was 3.63 nM.
Work on `C/C(O)=C(\C#N)C(=O)Nc1cc(Br)ccc1Br` yielded an IC50 [1] greater than 16000 nM, an IC50 [2] greater than 16000 nM and an IC50 [3] greater than 16000 nM. It also gave an IC50 [4] greater than 16000 nM, an IC50 [5] greater than 16000 nM and an IC50 [6] greater than 16000 nM. For the same compound, the IC50 [7] was greater than 16000 nM, the IC50 [8] was greater than 16000 nM and the IC50 [9] was greater than 16000 nM. It also gave an IC50 [10] greater than 16000 nM, an IC50 [11] greater than 16000 nM and an IC50 [12] greater than 16000 nM. It also gave an IC50 [13] greater than 16000 nM, an IC50 [14] greater than 16000 nM and an IC50 [15] greater than 16000 nM. The IC50 [16] was greater than 16000 nM, the IC50 [17] was greater than 16000 nM and the IC50 [18] was greater than 16000 nM. The IC50 [19] was greater than 16000 nM, the IC50 [20] was greater than 16000 nM and the IC50 [21] was greater than 16000 nM. For the same compound, the IC50 [22] was greater than 16000 nM, the IC50 [23] was greater than 16000 nM and the IC50 [24] was greater than 16000 nM. For the same compound, the IC50 [25] was greater than 16000 nM, the IC50 [26] was greater than 16000 nM and the IC50 [27] was greater than 16000 nM. It also gave an IC50 [28] greater than 16000 nM, an IC50 [29] greater than 16000 nM and an IC50 [30] greater than 16000 nM. It also gave an IC50 [31] greater than 16000 nM, an IC50 [32] greater than 16000 nM and an IC50 [33] greater than 16000 nM. The IC50 [34] was greater than 16000 nM, the IC50 [35] was greater than 16000 nM and the IC50 [36] was greater than 16000 nM. For the same compound, the IC50 [37] was greater than 16000 nM, the IC50 [38] was greater than 16000 nM and the IC50 [39] was greater than 16000 nM. For the same compound, the IC50 [40] was greater than 16000 nM, the IC50 [41] was greater than 16000 nM and the IC50 [42] was greater than 16000 nM. It also gave an IC50 [43] greater than 16000 nM, an IC50 [44] greater than 16000 nM and an IC50 [45] greater than 16000 nM. For the same compound, the IC50 [46] was greater than 16000 nM, the IC50 [47] was greater than 16000 nM and the IC50 [48] was greater than 16000 nM. For the same compound, the IC50 [49] was greater than 16000 nM, the IC50 [50] was greater than 16000 nM and the IC50 [51] was greater than 16000 nM. The IC50 [52] was greater than 16000 nM, the IC50 [53] was greater than 16000 nM and the IC50 [54] was greater than 16000 nM. The IC50 [55] was greater than 16000 nM, the IC50 [56] was greater than 16000 nM and the IC50 [57] was greater than 16000 nM. It also gave an IC50 [58] greater than 16000 nM, an IC50 [59] greater than 16000 nM and an IC50 [60] greater than 16000 nM. It also gave an IC50 [61] greater than 16000 nM, an IC50 [62] greater than 16000 nM and an IC50 [63] greater than 16000 nM.
